Data on 27 compounds can be found in US9512111B2, “N-sulfonylated tetrahydroquinolines and related bicyclic compounds for inhibition of RORγ activity and the treatment of disease” (Lycera Corporation, priority 2010, dated 2016).

Molecules are shown by their SMILES. Bounds are passed on as bounds.

As usually defined, the IC50 is the concentration that gives 50% inhibition.

The target in this experiment is T1, RORγ-LBD (Homo sapiens, UniProt P51449).
T1 construct: HIS-tagged RORγ-LBD was recombinantly expressed in SF9 cells; made in house; host or cells: SF9 cells (baculovirus); unpurified lysate
T1 sequence (P51449 269-508 limits assumed): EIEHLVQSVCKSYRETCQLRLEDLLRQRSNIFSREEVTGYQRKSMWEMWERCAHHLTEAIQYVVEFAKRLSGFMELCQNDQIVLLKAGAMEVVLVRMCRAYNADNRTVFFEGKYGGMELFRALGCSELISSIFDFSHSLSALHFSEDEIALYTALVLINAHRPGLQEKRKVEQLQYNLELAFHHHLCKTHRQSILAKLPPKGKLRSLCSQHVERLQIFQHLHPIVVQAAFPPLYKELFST
Briefly: RORγ-Ligand Binding Domain TR-FRET Assay. The settings on record: Table 8, indazoles. The format is biochemical. The procedure: HIS-tagged RORγ-LBD was recombinantly expressed in SF9 cells using a baculovirus expression system. The protein was not purified. Cells were lysed and the lysate was used as a source for RORγ-LBD for the assay. A 1:80 dilution of RORγ-LBD lysate in assay buffer (25 mM HEPES pH 7.0, 100 mM NaCl, 0.01% Tween, 0.1% BSA) was prepared and 5 μL was added to each well (RORγ-LBD final concentration ˜10 nM). Control wells received lysate from SF9 cells not expressing RORγ-LBD.
Compounds to be tested were diluted to 100× final test concentration in DMSO and further diluted to 4× final test concentration using assay buffer to provide the test compound mixture. An aliquot (5 μL) of the test compound mixture was added to each well.
A 4× stock of biotinylated-LXXLL peptide from SRC1-2 (Biotin-[…]) was prepared in assay buffer and a 5 μL aliquot added to each well (450 nM final concentration). A 4× solution of europium tagged anti-HIS antibody (2 nM final concentration) and APC conjugated streptavidin (60 nM final concentration) were prepared and a 5 μL aliquot added to each well.
The final assay mixture was incubated for 4 hours to overnight, and the fluorescence signal was measured on an Envision plate reader: (Excitation filter=340 nm; APC emission=665 nm; Europium emission=615 nm; dichroic mirror=D400/D630; delay time=100 μs, integration time=200 μs).
IC50 values for test compounds were calculated from the quotient of the fluorescence signal at 665 nm divided by the fluorescence signal at 615 nm using GraphPad Prism software.
For orientation: TR-FRET usually uses a lanthanide donor and a delayed reading to cut background.

`COc1ccc(S(=O)(=O)n2ncc3ccc(NC(=O)c4c(F)cccc4Cl)cc32)c(OC)c1` [Compound V-91]: the IC50 was under 15 µM.
`O=C(Nc1ccc2cnn(S(=O)(=O)Cc3ccc(Cl)cc3)c2c1)c1c(F)cccc1Cl` [Compound V-92] displayed an IC50 of under 15 µM.
`O=C(Nc1ccc2cnn(S(=O)(=O)Cc3cc(C(F)(F)F)cc(C(F)(F)F)c3)c2c1)c1c(F)cccc1Cl` [Compound V-93] displayed a half-maximal inhibitory concentration (IC50) of under 15 µM.
`O=C(Nc1ccc2cnn(S(=O)(=O)c3cccnc3)c2c1)c1c(F)cccc1Cl` [Compound V-94] registered an IC50 of under 15 µM.
The compound `O=C(Nc1ccc2cnn(S(=O)(=O)c3ccc(N4CCOCC4)nc3)c2c1)c1c(F)cccc1Cl` [Compound V-95] displayed an IC50 of under 15 µM.
Compound `O=C(Nc1ccc2cnn(S(=O)(=O)c3ccc(Cl)s3)c2c1)c1c(F)cccc1Cl` [Compound V-96] registered an IC50 of under 15 µM.
For the compound `O=C(Nc1ccc2cnn(S(=O)(=O)c3cc(Cl)c(Cl)s3)c2c1)c1c(F)cccc1Cl` [Compound V-97], the IC50 is under 15 µM.
Consider `O=C(Nc1ccc2cnn(S(=O)(=O)c3ccc(Br)cc3)c2c1)c1c(F)cccc1Cl` [Compound V-98], for which the IC50 was under 15 µM.
`O=C(Nc1ccc2cnn(S(=O)(=O)c3ccsc3)c2c1)c1c(F)cccc1Cl` [Compound V-99]: the IC50 is under 15 µM.
As for `COc1ccc(F)cc1S(=O)(=O)n1ncc2ccc(NC(=O)c3c(F)cccc3Cl)cc21` [Compound V-100], the IC50 was under 15 µM.
`Cc1ccc(F)c(S(=O)(=O)n2ncc3ccc(NC(=O)c4c(F)cccc4Cl)cc32)c1` [Compound V-101] yielded an IC50 of under 15 µM.
The same measure for `Cc1c(F)cccc1S(=O)(=O)n1ncc2ccc(NC(=O)c3c(F)cccc3Cl)cc21` [Compound V-102]: under 15 µM; for `Cc1ccc(S(=O)(=O)n2ncc3ccc(NC(=O)c4c(F)cccc4Cl)cc32)c(C)c1` [Compound V-103]: under 15 µM; for `Cc1nn(C(F)F)cc1S(=O)(=O)n1ncc2ccc(NC(=O)c3c(F)cccc3Cl)cc21` [Compound V-104]: under 15 µM.
Regarding `O=C(Nc1ccc2cnn(S(=O)(=O)C3CC3c3ccccc3)c2c1)c1c(F)cccc1Cl` (stereo not drawn) [Compound V-105], the IC50 was under 15 µM.
With `CC(C)(C)c1cccc(S(=O)(=O)n2ncc3ccc(NC(=O)c4c(F)cccc4Cl)cc32)c1` [Compound V-106] the figure was under 15 µM; with `CNC(=O)c1cccc(S(=O)(=O)n2ncc3ccc(NC(=O)c4c(F)cccc4Cl)cc32)c1` [Compound V-107], under 15 µM; with `COC(=O)c1cccc(S(=O)(=O)n2ncc3ccc(NC(=O)c4c(F)cccc4Cl)cc32)c1` [Compound V-108], under 15 µM.
Compound `COC(=O)c1ccc(S(=O)(=O)n2ncc3ccc(NC(=O)c4c(F)cccc4Cl)cc32)cc1` [Compound V-109] had an IC50 of under 15 µM.
The compound `Cc1c(S(=O)(=O)n2ncc3ccc(NC(=O)c4c(F)cccc4Cl)cc32)cnn1C` [Compound V-110] returned an IC50 of under 15 µM.
Turning to `COc1ccccc1S(=O)(=O)n1ncc2ccc(NC(=O)c3c(F)cccc3Cl)cc21` [Compound V-111], the IC50 is under 15 µM.
The compound `Cn1cc(S(=O)(=O)n2ncc3ccc(NC(=O)c4c(F)cccc4Cl)cc32)cn1` [Compound V-112] returned a half-maximal inhibitory concentration (IC50) of under 15 µM.
Regarding `CCn1cc(S(=O)(=O)n2ncc3ccc(NC(=O)c4c(F)cccc4Cl)cc32)cn1` [Compound V-113], the IC50 is under 15 µM.
The same measure for `O=C(Nc1ccc2cnn(S(=O)(=O)c3cc(F)cc(F)c3)c2c1)c1c(F)cccc1Cl` [Compound V-114]: under 15 µM.
With `CCCc1ccc(S(=O)(=O)n2ncc3ccc(NC(=O)c4c(F)cccc4Cl)cc32)cc1` [Compound V-115], the 50% inhibitory concentration (IC50) was under 15 µM.
The compound `CCc1ccc(S(=O)(=O)n2ncc3ccc(NC(=O)c4c(F)cccc4Cl)cc32)cc1` [Compound V-116] gave a concentration for half-maximal inhibition (IC50) of under 15 µM.
`Cc1ccc(C)c(S(=O)(=O)n2ncc3ccc(NC(=O)c4c(F)cccc4Cl)cc32)c1` [Compound V-117] registered an IC50 of under 15 µM.
